Common to all, as to assay: Antibacterial activity, minimum inhibition concentration (MIC)
Common to all, as to type: cell-based

Experiment [1] has as its system Proteus morganii IFO 3848. Particulars: Morganella morganii, read-out: minimum inhibition concentration (MIC). How it is done:
(§1) Antibacterial activities of the compounds according to this invention, which had been prepared in the preceding Examples, were measured according to the method prescribed by The Committee of Amendment of "The method for measurement of the minimum inhibition concentration", The Chemotherapy Association, Japan (See Chemotherapy, Vol. 29, No. 1, pp. 76 ~ 79 (1981)).
(§2) The test results are shown in terms of the minimum inhibition concentration (MIC) (unit: µg/mℓ) in the following Tables 1 to 4.

Experiment [2] has as its system Staphylococcus aureus FDA 209 PJC-1. The procedure: as §1, §2
In experiment [3] the test system is Pseudomonas aeruginosa NCTC 10490. Particulars: NCTC10490, Table 2. The procedure: as §1, §2
The subject of experiment [4] is Escherichia coli NIHJ-JC-2. The procedure:
as §1, §2

The test system of experiment [5] is Salmonella typhimurium IID-971. Particulars: Salmonella enterica, Table 3; Salmonella typhimurium IID-971; read-out: minimum inhibition concentration (MIC). How it is done:
as §1, §2

The subject of experiment [6] is Klebsiella pneumoniae PCI-602. Particulars: PCI602, Table 3. How it is done: as §1, §2
The test system of experiment [7] is Proteus mirabillis IFO 3849. Particulars: Table 3. The procedure: as §1, §2
The test system of experiment [8] is Salmonella typhimrium 901. Particulars: Table 4; Salmonella typhimrium 901; read-out: minimum inhibition concentration (MIC). The procedure:
as §1, §2

Experiment [9] has as its system Staphylococcus aureus MS 353. Particulars: Staphylococcus aureus, MS353, Table 4; Staphylococcus aureus MS 353; read-out: minimum inhibition concentration (MIC). How it is done: as §1, §2
The mark [10] stands for this setting: IFO3848, Table 2, Proteus morganii IFO-3848.
[11] abbreviates: IFO3848, Table 4, Proteus morganii IFO 3848.

Structures are written as SMILES. Values after ≈ are worked out from the molar mass of the structure shown. Counter-ions that a name gives are not always drawn. Like-named read-outs stand apart in the source and are kept apart here.

As for `Nc1nc(C(=CBr)C(=O)NC2C(=O)N3C(C(=O)O)=C(CSc4nncs4)CS[C@H]23)cs1` (stereo partly shown) [Example 25, 7-[2-Bromomethylene-2-(2-aminothiazol-4-yl)acetamido]-3-(1,3,4-thiadiazol-2-yl)thiomethyl-3-cephem-4-carboxylic acid], the MIC is ≤ 0.0063 µg/mL in experiment [1] (setting [10]); 0.2 µg/mL (≈ 0.356 µM) in [2] (FDA209, Table 2); 0.2 µg/mL (≈ 0.356 µM) in experiment [3]; 0.1 µg/mL (≈ 0.178 µM) in experiment [4] (NIHJJC2, Table 2).
Consider `CC(=O)OCC1=C(C(=O)O)N2C(=O)C(NC(=O)C(=CCl)c3csc(N)n3)C2SC1` (single isomer, unassigned) [Example 28, sodium 7-[2-chloromethylene-2-(2-aminothiazol-4-yl)-acetamido]-3-acetoxymethyl-3-cephem-4-carboxylate], for which the MIC in experiment [2] (FDA209, Table 3) was 12.5 µg/mL; in experiment [4] (NIHJJC2, Table 3), 0.1 µg/mL; in [5], 12.5 µg/mL; in experiment [6] it was 0.05 µg/mL; in experiment [7] it was 0.2 µg/mL.
For `Cc1nnc(SCC2=C(C(=O)O)N3C(=O)C(NC(=O)C(=CBr)c4csc(N)n4)C3SC2)s1` (stereo not shown) [Example 26, 7-[2-Bromomethylene-2-(2-aminothiazol-4-yl)acetamido]-3-(2-methyl-1,3,4-thiadiazol-5-yl)thiomethy1-3-cephem-4-carboxylic acid], the MIC in experiment [1] (setting [10]) was ≤ 0.0063 µg/mL; in [2] (FDA209, Table 2), 0.39 µg/mL (≈ 0.678 µM); in experiment [3], 0.39 µg/mL (≈ 0.678 µM); in experiment [4] (NIHJJC2, Table 2), 0.1 µg/mL (≈ 0.174 µM).
For `Cn1nnnc1SCC1=C(C(=O)O)N2C(=O)C(NC(=O)C(=CCl)c3csc(N)n3)C2SC1` (single isomer, unassigned) [Example 27, sodium 7-[2-chloromethylene-2-(2-aminothiazol-4-yl)acetamido]-3-(1-methyl-1H-tetrazol-5-yl)thiomethyl-3-cephem-4-carboxylate], the MIC in experiment [2] (FDA209, Table 3) was 0.78 µg/mL; in [4] (NIHJJC2, Table 3) it was 0.2 µg/mL; in experiment [5] it was 0.78 µg/mL; in [6], < 0.00625 µg/mL; in experiment [7], 0.2 µg/mL.
On to `CCSc1nnc(SCC2=C(C(=O)O)N3C(=O)C(NC(=O)C(=CCl)c4csc(N)n4)C3SC2)s1` (single isomer, unassigned) [Example 22, 7-[2-Chloromethylene-2-(2-aminothiazol-4-yl)acetamido]-3-(2-ethylthio-l,3,4-thiadiazol-5-yl)thiomethyl-3-cephem-4-carboxylic acid hydrochloride], for which the MIC in experiment [1] (setting [10]) was ≤ 0.0063 µg/mL; in [2] (FDA209, Table 2), 0.2 µg/mL; in experiment [3] it was 1.56 µg/mL; in experiment [4] (NIHJJC2, Table 2), 0.2 µg/mL.
For the compound `N#CCn1nnnc1SCC1=C(C(=O)O)N2C(=O)C(NC(=O)C(=CCl)c3csc(N)n3)C2SC1` (single isomer, unassigned) [Example 32, sodiun 7-[2-chloromethylene-2-(2-aminothiazol-4-yl)acetamido]-3-(l-cyanomethyl-l,2,3,4-tetrazol-5-yl)thiomethyl-3-cephem-4-carboxylate], the MIC in [1] (setting [11]) is 0.0125 µg/mL (≈ 0.0231 µM); in experiment [8] it was 0.78 µg/mL (≈ 1.44 µM); in experiment [9] it was 1.56 µg/mL (≈ 2.89 µM).
Consider `Cn1ncc(=O)nc1SCC1=C(C(=O)O)N2C(=O)C(NC(=O)C(=CCl)c3csc(N)n3)C2SC1` (single isomer, unassigned) [Example 36, sodium 7-[2-chloromethylene-2-(2-aminothiazol-4-yl)acetamido]-3-(2-dihydro-2-methyl-5-oxo-as-triazine-3-yl)thiomethyl-3-cephem-4-carboxylate], for which the MIC was ≤ 0.00625 µg/mL in [1] (setting [11]), 0.39 µg/mL in experiment [8] and 0.39 µg/mL in experiment [9].

Values taken from patent EP0082498A2, “Beta-lactam compounds and process for the preparation thereof” (SAGAMI CHEMICAL RESEARCH CENTER, priority 1981, dated 1983).
